21 compounds from patent US20110059043A1, “CHEMICAL COMPOUNDS” (priority 2009, published 2011) can be followed below.

The term IC50 denotes the concentration at which inhibition is half-maximal.

Data set [1] deals with HCV replicon cells Huh 9B. Type of data set: cell-based. The settings on record: concentration reducing total cell area by 50% relative to DMSO controls; 72 h. Summed up:
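Huh 9B replicon cells (luciferase-ubiquitin-neomycin fusion, EMCV-IRES-driven HCV polyprotein with adaptive mutations) were seeded from a 100,000 cells/ml suspension in G418-free medium, grown 24 h, then exposed to compound (dilutions at 1% DMSO) for 72 h at 37 °C. For toxicity, methylene blue staining was read at 620 nm and TD50 derived relative to DMSO controls.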

In data set [2] the target is T1, Recombinant HCV polymerase (BK strain) (Hepatitis C virus genotype 1b, UniProt P26663).
T1 construct: Recombinant HCV polymerase (BK strain) was expressed and purified from E. coli with a 21 amino acid C-terminal deletion; His6; made in house; host or cells: E. coli
T1 sequence (P26663 2420-2989): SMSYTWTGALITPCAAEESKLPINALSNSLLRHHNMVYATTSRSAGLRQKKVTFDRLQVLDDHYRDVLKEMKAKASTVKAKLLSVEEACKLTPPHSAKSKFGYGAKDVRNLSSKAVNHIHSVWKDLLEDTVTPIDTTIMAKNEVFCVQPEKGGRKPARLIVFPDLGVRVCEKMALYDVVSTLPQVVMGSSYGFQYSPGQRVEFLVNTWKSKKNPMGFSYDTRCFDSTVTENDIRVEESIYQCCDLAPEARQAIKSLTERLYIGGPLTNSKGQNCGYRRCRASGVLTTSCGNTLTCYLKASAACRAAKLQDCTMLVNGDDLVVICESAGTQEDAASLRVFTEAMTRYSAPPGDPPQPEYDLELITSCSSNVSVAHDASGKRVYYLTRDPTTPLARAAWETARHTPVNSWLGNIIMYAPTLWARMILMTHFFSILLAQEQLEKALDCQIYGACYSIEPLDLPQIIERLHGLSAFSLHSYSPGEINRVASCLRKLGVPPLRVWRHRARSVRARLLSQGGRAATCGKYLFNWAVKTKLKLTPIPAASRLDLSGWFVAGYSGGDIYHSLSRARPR
The data set is described as follows: HCV polymerase enzyme assay (radiometric [33P]-UTP incorporation). Type of data set: biochemical, HCV 1b. Summed up:
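His6-tagged BK-strain NS5B lacking 21 C-terminal residues, expressed in E. coli, at 100 nM in Tris pH 7.5 with 5 mM MgCl2 and 3% DMSO. Substrates: 125 nM biotin-U13:0.63 μg/ml PolyA, 200 nM UTP plus [33P]-UTP; 100 min at 25° C. Incorporation read by streptavidin capture; IC50 from 8-point curve.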

Data set [3] deals with HCV replicon cells Huh 9B. The experiment in a line: HCV replicon assay (luciferase). The note with it: Hepatitis C virus, reduction of replicon level by 50% vs untreated cell control, 72 h. Format: cell-based. On the technique in general: A replicon is a self-replicating genome or part of one, used to study replication in cells.

For `CCOc1cc(Cl)cc(Cl)c1C1=NC(NC(=O)c2cc(F)ccc2OCCOC)C(=O)Nc2ccccc21` (stereo not drawn) [Example 56, N-(5-(2,4-Dichloro-6-ethoxyphenyl)-2-oxo-2,3-dihydro-1H-benzo[e][1,4]diazepin-3-yl)-5-fluoro-2-(2-methoxyethoxy)benzamide], in data set [1], the “Replicon Assay Value TD50” value was 11.349 µM. In addition, the IC50 in data set [2] is 0.153 µM; in data set [3], 0.0389 µM.

`CS(=O)(=O)NCCOc1ccc(Cl)cc1C(=O)NC1N=C(c2c(Cl)cc(Cl)cc2Cl)c2ccccc2NC1=O` (stereo not drawn) [Example 23, 5-Chloro-2-(2-(methylsulfonamido)ethoxy)-N-(2-oxo-5-(2,4,6-trichlorophenyl)-2,3-dihydro-1H-benzo[e][1,4]diazepin-3-yl)benzamide]: the “Replicon Assay Value TD50” value in data set [1] worked out at 12.744 µM. Besides, the concentration for half-maximal inhibition (IC50) in data set [2] was found to be 0.952 µM; in data set [3] it was 2.91 µM.

For the compound `CN(CCOCC1CC1)c1ncc(F)cc1C(=O)NC1N=C(c2c(Cl)cc(Cl)cc2Cl)c2ccccc2NC1=O` (stereo not drawn) [Example 46, 2-((2-(Cyclopropylmethoxy)ethyl)(methyl)amino)-5-fluoro-N-(2-oxo-5-(2,4,6-trichlorophenyl)-2,3-dihydro-1H-benzo[e][1,4]diazepin-3-yl)nicotinamide], the “Replicon Assay Value TD50” value in data set [1] worked out at 15.961 µM. Besides, the results for the half-maximal inhibitory concentration (IC50) in data set [2] and in data set [3] were 0.168 µM and 0.151 µM, respectively.

For `CCNC(=O)NCCOc1ccc(Cl)cc1C(=O)NC1N=C(c2c(Cl)cc(Cl)cc2Cl)c2ccccc2NC1=O` (stereo not drawn) [Example 24, 5-Chloro-2-(2-(3-ethylureido)ethoxy)-N-(2-oxo-5-(2,4,6-trichlorophenyl)-2,3-dihydro-1H-benzo[e][1,4]diazepin-3-yl)benzamide], the “Replicon Assay Value TD50” value in data set [1] is 11.815 µM. Besides, the values for the IC50 in data set [2] and in data set [3] were 0.281 µM and 1.28 µM, respectively.

`CN(C)CCOCCOc1ccc(Cl)cc1C(=O)NC1N=C(c2c(Cl)cc(Cl)cc2Cl)c2ccccc2NC1=O` (stereo not drawn) [Example 13, 5-Chloro-2-(2-(2-(dimethylamino)ethoxy)ethoxy)-N-(2-oxo-5-(2,4,6-trichlorophenyl)-2,3-dihydro-1H-benzo[e][1,4]diazepin-3-yl)benzamide]: in data set [1], the “Replicon Assay Value TD50” value is 6.754 µM. Also, the IC50 in data set [2] was 1.7 µM; in data set [3], 3.17 µM.

On to `COCCOc1ncc(F)cc1C(=O)NC1N=C(c2c(Cl)cc(Cl)cc2Cl)c2ccccc2NC1=O` (stereo not drawn) [Example 30, 5-Fluoro-2-(2-methoxyethoxy)-N-(2-oxo-5-(2,4,6-trichlorophenyl)-2,3-dihydro-1H-benzo[e][1,4]diazepin-3-yl)nicotinamide], for which the “Replicon Assay Value TD50” value in data set [1] is more than 25 µM. Further, the IC50 in data set [2] was 0.116 µM; in data set [3], 0.0464 µM.

Regarding `COCCOc1ccc(C)cc1C(=O)NC1N=C(c2c(Cl)cc(Cl)cc2Cl)c2ccccc2NC1=O` (stereo not drawn) [Example 17, 2-(2-Methoxyethoxy)-5-methyl-N-(2-oxo-5-(2,4,6-trichlorophenyl)-2,3-dihydro-1H-benzo[e][1,4]diazepin-3-yl)benzamide], the “Replicon Assay Value TD50” value in data set [1] was more than 25 µM. Further, the IC50 in data set [2] was 0.235 µM; in data set [3], 0.0788 µM.

As for `COCCOc1ccc(Br)cc1C(=O)NC1N=C(c2c(Cl)cc(Cl)cc2Cl)c2ccccc2NC1=O` (stereo not drawn) [Example 20, 5-Bromo-2-(2-methoxyethoxy)-N-(2-oxo-5-(2,4,6-trichlorophenyl)-2,3-dihydro-1H-benzo[e][1,4]diazepin-3-yl)benzamide], the “Replicon Assay Value TD50” value in data set [1] is more than 25 µM. Further, the figures for the half-inhibitory concentration (IC50) in data set [2] and in data set [3] were 0.535 µM and 0.195 µM, respectively.

For the compound `COCC(C)Oc1ccc(Cl)cc1C(=O)NC1N=C(c2c(Cl)cc(Cl)cc2Cl)c2ccccc2NC1=O` (stereo not drawn) [Example 4, 5-Chloro-2-(1-methoxypropan-2-yloxy)-N-(2-oxo-5-(2,4,6-trichlorophenyl)-2,3-dihydro-1H-benzo[e][1,4]diazepin-3-yl)benzamide], the “Replicon Assay Value TD50” value in data set [1] was more than 25 µM. In addition, the 50% inhibitory concentration (IC50) in data set [2] was determined as 0.261 µM; in data set [3], 0.303 µM.

Consider `CO[C@@H](C)COc1ncc(F)cc1C(=O)NC1N=C(c2c(Cl)cc(Cl)cc2Cl)c2ccccc2NC1=O` (stereo partly drawn) [Example 35, 5-Fluoro-2-((S)-2-methoxypropoxy)-N-(2-oxo-5-(2,4,6-trichlorophenyl)-2,3-dihydro-1H-benzo[e][1,4]diazepin-3-yl)nicotinamide], for which, in data set [1], the “Replicon Assay Value TD50” value is 24.614 µM. The IC50 in data set [2] is 0.0897 µM; in data set [3] it was 0.184 µM.

For `COCCOc1ncc(Br)cc1C(=O)NC1N=C(c2c(Cl)cc(Cl)cc2Cl)c2ccccc2NC1=O` (stereo not drawn) [Example 33, 5-Bromo-2-(2-methoxyethoxy)-N-(2-oxo-5-(2,4,6-trichlorophenyl)-2,3-dihydro-1H-benzo[e][1,4]diazepin-3-yl)nicotinamide], in data set [1], the “Replicon Assay Value TD50” value was more than 25 µM. The values for the IC50 in data set [2] and in data set [3] were 0.265 µM and 0.487 µM, respectively.

Take `CCOCCOc1ncc(F)cc1C(=O)NC1N=C(c2c(Cl)cc(Cl)cc2OC)c2ccccc2NC1=O` (stereo not drawn) [Example 55, N-(5-(2,4-Dichloro-6-methoxyphenyl)-2-oxo-2,3-dihydro-1H-benzo[e][1,4]diazepin-3-yl)-2-(2-ethoxyethoxy)-5-fluoronicotinamide]: the “Replicon Assay Value TD50” value in data set [1] turned out to be 18.821 µM. In addition, the figures for the half-inhibitory concentration (IC50) in data set [2] and in data set [3] were 0.116 µM and 0.027 µM, respectively.

As for `O=C(NC1N=C(c2c(Cl)cc(Cl)cc2Cl)c2ccccc2NC1=O)c1cc(Cl)ccc1OCC1CCCO1` (stereo not drawn) [Example 9, 5-Chloro-N-(2-oxo-5-(2,4,6-trichlorophenyl)-2,3-dihydro-1H-benzo[e][1,4]diazepin-3-yl)-2-((tetrahydrofuran-2-yl)methoxy)benzamide], the “Replicon Assay Value TD50” value in data set [1] was more than 25 µM. Moreover, the IC50 in data set [2] came to 0.296 µM; in data set [3], 0.61 µM.

On to `CCOCCOc1ncc(F)cc1C(=O)N[C@H]1N=C(c2c(Cl)cc(Cl)cc2Cl)c2ccccc2NC1=O` [Example 65, (S)-2-(2-Ethoxyethoxy)-5-fluoro-N-(2-oxo-5-(2,4,6-trichlorophenyl)-2,3-dihydro-1H-benzo[e][1,4]diazepin-3-yl)nicotinamide], for which the “Replicon Assay Value TD50” value in data set [1] is 10.854 µM. In addition, the results for the IC50 in data set [2] and in data set [3] were 0.0323 µM and 0.0048 µM, respectively.

For the compound `COCCCOc1ncc(F)cc1C(=O)NC1N=C(c2c(Cl)cc(Cl)cc2Cl)c2ccccc2NC1=O` (stereo not drawn) [Example 38, 5-Fluoro-2-(3-methoxypropoxy)-N-(2-oxo-5-(2,4,6-trichlorophenyl)-2,3-dihydro-1H-benzo[e][1,4]diazepin-3-yl)nicotinamide], the “Replicon Assay Value TD50” value in data set [1] worked out at 22.269 µM. Besides, the IC50 came out at 0.079 µM in data set [2] and 0.0157 µM in data set [3].

For the compound `CC(C)COCCOc1ccc(Cl)cc1C(=O)NC1N=C(c2c(Cl)cc(Cl)cc2Cl)c2ccccc2NC1=O` (stereo not drawn) [Example 6, 5-Chloro-2-(2-isobutoxyethoxy)-N-(2-oxo-5-(2,4,6-trichlorophenyl)-2,3-dihydro-1H-benzo[e][1,4]diazepin-3-yl)benzamide], the “Replicon Assay Value TD50” value in data set [1] was found to be 10.604 µM. Further, the values for the IC50 in data set [2] and in data set [3] were 0.715 µM and 0.849 µM, respectively.

On to `CCCCOCCOc1ccc(Cl)cc1C(=O)NC1N=C(c2c(Cl)cc(Cl)cc2Cl)c2ccccc2NC1=O` (stereo not drawn) [Example 10, 2-(2-Butoxyethoxy)-5-chloro-N-(2-oxo-5-(2,4,6-trichlorophenyl)-2,3-dihydro-1H-benzo[e][1,4]diazepin-3-yl)benzamide], for which, in data set [1], the “Replicon Assay Value TD50” value is more than 25 µM. Moreover, the IC50 in data set [2] amounted to 0.757 µM; in data set [3], 0.338 µM.

Consider `COCCNc1ncc(F)cc1C(=O)NC1N=C(c2c(Cl)cc(Cl)cc2Cl)c2ccccc2NC1=O` (stereo not drawn) [Example 42, 5-Fluoro-2-(2-methoxyethylamino)-N-(2-oxo-5-(2,4,6-trichlorophenyl)-2,3-dihydro-1H-benzo[e][1,4]diazepin-3-yl)nicotinamide], for which the “Replicon Assay Value TD50” value in data set [1] stood at 17.784 µM. The IC50 in data set [2] came to 0.969 µM; in data set [3], 2.64 µM.

Turning to `COCCOc1ncc(F)cc1C(=O)N[C@@H]1N=C(c2c(Cl)cc(Cl)cc2Cl)c2ccccc2NC1=O` [Example 64, (R)-5-Fluoro-2-(2-methoxyethoxy)-N-(2-oxo-5-(2,4,6-trichlorophenyl)-2,3-dihydro-1H-benzo[e][1,4]diazepin-3-yl)nicotinamide], the “Replicon Assay Value TD50” value in data set [1] came to 23.452 µM. The IC50 in data set [2] was determined as 2.07 µM; in data set [3], 0.241 µM.

`O=C(NC1N=C(c2c(Cl)cc(Cl)cc2Cl)c2ccccc2NC1=O)c1cc(Cl)ccc1OCCOc1ccccc1` (stereo not drawn) [Example 11, 5-Chloro-N-(2-oxo-5-(2,4,6-trichlorophenyl)-2,3-dihydro-1H-benzo[e][1,4]diazepin-3-yl)-2-(2-phenoxyethoxy)benzamide]: the “Replicon Assay Value TD50” value in data set [1] is more than 25 µM. For the same compound, the IC50 came out at 0.864 µM in data set [2] and 1.15 µM in data set [3].

Regarding `COCCOc1ccc(F)cc1C(=O)NC1N=C(c2c(Cl)cccc2Cl)c2ccccc2NC1=O` (stereo not drawn) [Example 48, N-(5-(2,6-Dichlorophenyl)-2-oxo-2,3-dihydro-1H-benzo[e][1,4]diazepin-3-yl)-5-fluoro-2-(2-methoxyethoxy)benzamide], the “Replicon Assay Value TD50” value in data set [1] is more than 25 µM. Further, the results for the half-maximal inhibitory concentration (IC50) in data set [2] and in data set [3] were 0.155 µM and 0.703 µM, respectively.
